Reference: patent publication US9029401B2 (The Regents of the University of California, priority 2011, dated 2015)
Where two headings read alike, the source gives them in different places.

How the values were obtained:
[1] = target: human sEH (Homo sapiens (Human), UniProt P34913); experiment: Inhibitory activity against human sEH; type: biochemical
[2] = tested on: SKBR3 breast cancer cell line; experiment: MTT cell viability assay, SKBR3; type: cell-based; conditions: Homo sapiens, read-out: EC50 on cell viability, SKBR3 (Breast)
Method: (§1) Cell-based assays were performed using the described cell lines, grown in the appropriate Growth Mediums containing 10% fetal bovine serum and 1% penicillin-streptomycin. Cancer cells were plated at 15,000 cells/well in 96-well plates and allowed to attach overnight. Inhibitors were dissolved in DMSO and then diluted to concentrations ranging from 0.1-25 μM with a final DMSO concentration of 0.1%. Cell viability was determined after 72 hours incubation periods. To determine anti-proliferative effects of inhibitors, cellular proliferation was determined using the colorimetric MTT cell viability assay kit, as described by the manufacture (ATCC).

[3] = tested on: PC-3 prostate cancer cell line; experiment: MTT cell viability assay, PC-3; type: cell-based; conditions: 72 h, read-out: EC50 on cell viability, PC-3 (Prostate)
Method: as §1

[4] = tested on: ACHN renal cell carcinoma cell line; experiment: MTT cell viability assay, ACHN; type: cell-based; conditions: Homo sapiens, 72 h, read-out: EC50 on cell viability, ACHN (Kidney)
Method: as §1, with “Inhibitors were dissolved in DMSO and then diluted to concentrations ranging from 0.1-25 μM with a final DMSO concentration of 0.1%.” left out

[5] = tested on: Huh-7 hepatoma cell line; experiment: MTT cell viability assay, Huh-7; type: cell-based; conditions: Homo sapiens, read-out: EC50 on cell viability, Huh-7 (Liver)
Method: as §1, with “Inhibitors were dissolved in DMSO and then diluted to concentrations ranging from 0.1-25 μM with a final DMSO concentration of 0.1%.” left out

[6] = tested on: T47D breast cancer cell line; experiment: MTT cell viability assay, T47D; type: cell-based; conditions: Homo sapiens, 72 hours incubation
Method: as §1

[7] = target: Raf-1 (Homo sapiens (Human), UniProt P04049); experiment: In vitro kinase inhibition assay (ADP-Glo), Raf-1; type: biochemical
Raf-1, sequence (P04049 whole entry): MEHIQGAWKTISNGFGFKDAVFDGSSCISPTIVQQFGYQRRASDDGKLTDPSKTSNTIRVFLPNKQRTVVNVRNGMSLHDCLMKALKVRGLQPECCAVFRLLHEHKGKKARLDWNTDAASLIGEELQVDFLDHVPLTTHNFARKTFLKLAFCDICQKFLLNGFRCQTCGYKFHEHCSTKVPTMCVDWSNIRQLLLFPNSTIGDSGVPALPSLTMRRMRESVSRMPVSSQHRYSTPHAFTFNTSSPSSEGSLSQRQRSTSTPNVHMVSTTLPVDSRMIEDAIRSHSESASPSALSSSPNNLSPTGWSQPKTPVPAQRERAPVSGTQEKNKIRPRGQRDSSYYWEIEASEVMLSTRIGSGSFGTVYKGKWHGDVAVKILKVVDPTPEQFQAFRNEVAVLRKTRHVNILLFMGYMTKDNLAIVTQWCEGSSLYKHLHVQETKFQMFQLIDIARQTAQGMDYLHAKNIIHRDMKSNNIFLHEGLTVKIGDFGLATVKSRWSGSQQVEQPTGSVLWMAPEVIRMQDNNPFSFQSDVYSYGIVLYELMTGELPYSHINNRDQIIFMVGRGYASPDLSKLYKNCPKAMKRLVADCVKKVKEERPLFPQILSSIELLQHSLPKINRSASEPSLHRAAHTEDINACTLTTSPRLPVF
Method: (§2) All measurements included background and control (vehicle only) luminescence readings.
(§3) The kinases Raf-1 and b-Raf (V600E), and their corresponding substrate, MEK1, and Full length recombinant CRAF kinase and its respective substrate, recombinant MEK1, were purchased from US Biological (Swampscott, Mass.). All assays were performed under identical conditions for the Raf isozymes: 10 nM Enzyme, 1 μM MEK1, 10 μM ATP, at 22° C. for 2 hours. […] IC50 values were obtained by determining the change in the ADP production (luminescence signal) at various inhibitor concentrations as compared to the control assay. Individual data sets were performed in duplicate and each IC50 was determined by the average and standard deviation of three separate experiments.
as §3, with “Full” for “The kinases Raf-1 and b-Raf (V600E), and their corresponding substrate, MEK1, and Full”, “at” for “under identical conditions for the Raf isozymes:”, “CRAF,” for “Enzyme,”, “(luminescent” for “(luminescence”, “mean” for “average”

[8] = target: b-Raf (V600E) (Homo sapiens (Human), UniProt P15056, V600E); experiment: In vitro kinase inhibition assay (ADP-Glo), b-Raf (V600E); type: biochemical
b-Raf (V600E), sequence (P15056 whole entry V600E): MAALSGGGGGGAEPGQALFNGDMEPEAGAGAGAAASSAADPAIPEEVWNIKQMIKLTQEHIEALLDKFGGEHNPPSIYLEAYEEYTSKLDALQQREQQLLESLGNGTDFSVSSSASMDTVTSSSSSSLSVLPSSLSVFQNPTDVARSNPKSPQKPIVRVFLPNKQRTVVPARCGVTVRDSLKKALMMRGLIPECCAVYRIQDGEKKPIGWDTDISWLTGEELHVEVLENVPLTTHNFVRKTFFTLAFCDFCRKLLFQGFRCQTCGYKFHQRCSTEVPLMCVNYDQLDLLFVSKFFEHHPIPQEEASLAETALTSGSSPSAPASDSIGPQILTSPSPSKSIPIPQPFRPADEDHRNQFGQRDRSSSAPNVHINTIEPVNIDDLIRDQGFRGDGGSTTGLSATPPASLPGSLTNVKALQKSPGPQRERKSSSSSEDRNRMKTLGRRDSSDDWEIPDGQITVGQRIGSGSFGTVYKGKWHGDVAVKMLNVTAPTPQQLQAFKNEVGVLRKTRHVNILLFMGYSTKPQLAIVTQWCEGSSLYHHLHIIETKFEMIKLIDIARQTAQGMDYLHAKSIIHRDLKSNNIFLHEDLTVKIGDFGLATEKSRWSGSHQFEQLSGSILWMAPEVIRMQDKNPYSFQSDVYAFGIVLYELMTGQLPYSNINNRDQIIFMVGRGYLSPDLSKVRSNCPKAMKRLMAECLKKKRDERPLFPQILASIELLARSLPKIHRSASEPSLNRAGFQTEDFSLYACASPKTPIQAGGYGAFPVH
Method: as §2, §3

[9] = tested on: HepG2 hepatoma cell line; experiment: MTT cell viability assay, HepG2; type: cell-based; conditions: for EC50: Homo sapiens, read-out: EC50 on cell viability, HepG2 (Liver)
Method: as §1, with “Inhibitors were dissolved in DMSO and then diluted to concentrations ranging from 0.1-25 μM with a final DMSO concentration of 0.1%.” left out

[10] = 10 nM enzyme, 1 μM MEK1, 10 μM ATP, 22° C., 2 hours, read-out: Raf-1 IC50

human sEH, sequence (P34913 whole entry): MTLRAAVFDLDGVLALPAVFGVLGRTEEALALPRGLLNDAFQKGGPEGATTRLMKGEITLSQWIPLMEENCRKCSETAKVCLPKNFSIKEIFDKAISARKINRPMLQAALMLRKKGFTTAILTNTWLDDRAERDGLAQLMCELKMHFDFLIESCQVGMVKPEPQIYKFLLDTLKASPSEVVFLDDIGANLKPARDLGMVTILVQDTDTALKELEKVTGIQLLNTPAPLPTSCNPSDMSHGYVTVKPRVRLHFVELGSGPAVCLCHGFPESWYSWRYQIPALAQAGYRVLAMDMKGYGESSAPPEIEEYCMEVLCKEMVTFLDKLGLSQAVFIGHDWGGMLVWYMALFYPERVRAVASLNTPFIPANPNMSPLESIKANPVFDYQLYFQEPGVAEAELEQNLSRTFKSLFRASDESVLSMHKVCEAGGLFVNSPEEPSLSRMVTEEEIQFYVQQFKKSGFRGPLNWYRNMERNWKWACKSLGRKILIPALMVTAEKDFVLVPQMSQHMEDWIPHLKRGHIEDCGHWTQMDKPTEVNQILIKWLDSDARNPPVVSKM

For `N#Cc1ccc(O[C@H]2CC[C@H](NC(=O)Nc3ccc(C(F)(F)F)cc3)CC2)cc1` [Compound 2579, trans-1-[4-(4-Cyano-phenoxy)-cyclohexyl]-3-(4-trifluoromethyl-phenyl)-urea], the IC50 ([1]; read-out: Human sEH IC50) was 0.5 nM.
With `CNC(=O)c1ccc(O[C@H]2CC[C@H](NC(=O)Nc3ccc(Cl)c(C(F)(F)F)c3)CC2)cc1` [Compound 2253, trans-4-{4-[3-(4-Chloro-3-trifluoromethyl-phenyl)-ureido]-cyclohexyloxy}-N-methyl-benzamide] the IC50 ([1]; read-out: Human sEH IC50) was 0.5 nM.
For `CCOC(=O)c1ccc(O[C@H]2CC[C@@H](NC(=O)Nc3ccc(OC(F)(F)F)cc3)CC2)cc1` [Compound 1612, reference compound], the IC50 ([1]; read-out: Human sEH IC50) was 3.4 nM.
`CNC(=O)c1cc(Oc2ccc(NC(=O)Nc3ccc(Cl)c(C(F)(F)F)c3)cc2)ccn1` [Sorafenib, reference compound] showed an EC50 ([2]; SK-BR-3, 72 h) of 6500 nM, an EC50 [3] of 5500 nM and an EC50 [4] of 4000 nM. The EC50 ([5]; Huh-7, 72 h) was 4200 nM and the EC50 [6] was 3000 nM.
`CNC(=O)c1cc(Oc2ccc(NC(=O)NC34CC5CC(CC(C5)C3)C4)cc2)ccn1` [Compound 2287, 4-[4-(3-Adamantan-1-yl-ureido)-phenoxy]-pyridine-2-carboxylic acid methylamide] was tested, and the IC50 [7, 10] was over 10000 nM, the IC50 ([1]; read-out: Human sEH IC50) was 0.5 nM and the IC50 [8] was over 10000 nM.
`N#Cc1ccc(O[C@H]2CC[C@H](NC(=O)Nc3ccc(Cl)c(C(F)(F)F)c3)CC2)cc1` [Compound 2182, trans-1-(4-Chloro-3-trifluoromethyl-phenyl)-3-[4-(4-cyano-phenoxy)-cyclohexyl]-urea] was tested, and the IC50 [1] was 14.6 nM.
In the case of `O=C(NC12CC3CC(CC(C3)C1)C2)N[C@H]1CC[C@H](Oc2ccc(C(=O)O)cc2)CC1` [Compound 1471, reference compound], the EC50 [4] is reported as over 25000 nM.
With `CNC(=O)c1ccc(O[C@H]2CC[C@H](NC(=O)Nc3ccc(Cl)c(C(F)(F)F)c3)CC2)cn1` [Compound 2316, trans-5-{4-[3-(4-Chloro-3-trifluoromethyl-phenyl)-ureido]-cyclohexyloxy}-pyridine-2-carboxylic acid methylamide] the IC50 [7, 10] was 175 ± 20 nM, the IC50 ([1]; read-out: Human sEH IC50) was 0.5 nM and the IC50 [8] was 1500 nM.
With `N#Cc1ccc(O[C@H]2CC[C@H](NC(=O)Nc3ccc(Cl)cc3)CC2)cc1` [Compound 2580, trans-1-(4-Chloro-phenyl)-3-[4-(4-cyano-phenoxy)-cyclohexyl]-urea] the IC50 ([1]; read-out: Human sEH IC50) was 0.5 nM.
In the case of `CC(C)(C)OC(=O)c1ccc(O[C@H]2CC[C@H](NC(=O)Nc3ccc(Cl)c(C(F)(F)F)c3)CC2)cn1` [Compound 2315, trans-5-{4-[3-(4-Chloro-3-trifluoromethyl-phenyl)-ureido]-cyclohexyloxy}-pyridine-2-carboxylic acid tert-butyl ester], the IC50 [7, 10] is reported as over 10000 nM and the IC50 ([1]; read-out: Human sEH IC50) is reported as 0.5 nM.
For `O=C(Nc1ccc(OC(F)(F)F)cc1)N[C@H]1CC[C@H](Oc2ccnc(C(=O)N3CCCC3)c2)CC1` [Compound 2578, trans-1-{4-[2-(Pyrrolidine-1-carbonyl)-pyridin-4-yloxy]-cyclohexyl}-3-(4-trifluoromethoxy-phenyl)-urea], the IC50 ([1]; read-out: Human sEH IC50) was 0.5 nM.
`N#Cc1ccc(O[C@H]2CC[C@H](NC(=O)Nc3ccc(OC(F)(F)F)cc3)CC2)cc1` [Compound 2581, trans-1-[4-(4-Cyano-phenoxy)-cyclohexyl]-3-(4-trifluoromethoxy-phenyl)-urea] was tested, and the IC50 ([1]; read-out: Human sEH IC50) was 0.5 nM.
For `O=C(Nc1ccc(OC(F)(F)F)cc1)N[C@H]1CC[C@H](Oc2ccc(C(=O)O)cc2)CC1` [Compound 1728, trans-4-{4-[3-(4-Trifluoromethoxy-phenyl)-ureido]-cyclohexyloxy}-benzoic acid], the “Effect on Hep G2 cell viability (dose dependence)” value ([9]; FIG. 2) was “limited effect”, the “Effect on Hep G2 cell viability (dose dependence)” value ([9]; FIG. 4) was “limited effect” and the EC50 ([9]; HepG2, 72 h) was 15000 nM. For the same compound, the “Effect on sunitinib's ability to kill cancer cells” value ([9]; administered in combination with sunitinib, Hep G2) was “potentiates”, the EC50 [4] was 15000 nM and the EC50 ([5]; Huh-7, 72 h) was 20000 nM.
With `CC(C)(C)OC(=O)c1cc(O[C@H]2CC[C@@H](NC(=O)Nc3ccc(Cl)c(C(F)(F)F)c3)CC2)ccn1` [Compound 2318, cis-4-{4-[3-(4-Chloro-3-trifluoromethyl-phenyl)-ureido]-cyclohexyloxy}-pyridine-2-carboxylic acid tert-butyl ester] the inhibition at 10 µM ([7]; read-out: Raf-1 % inhibition, at 10 μM concentration) was 54% and the inhibition at 10 µM ([8]; at 10 μM concentration) was 51%.
With `CNC(=O)c1cc(O[C@H]2CC[C@H](NC(=O)Nc3ccc(OC(F)(F)F)cc3)CC2)ccn1` [Compound 2575, trans-4-{4-[3-(4-Trifluoromethoxy-phenyl)-ureido]-cyclohexyloxy}-pyridine-2-carboxylic acid methylamide] the IC50 [7, 10] was over 10000 nM and the IC50 ([1]; read-out: Human sEH IC50) was 0.5 nM.
`O=C(Nc1ccc(Cl)cc1)N[C@H]1CC[C@H](Oc2ccc(C(=O)O)cc2)CC1` [Compound 2084, trans-4-{4-[3-(4-Chloro-phenyl)-ureido]-cyclohexyloxy}-benzoic acid] showed an IC50 [7, 10] of over 10000 nM and an IC50 ([1]; read-out: Human sEH IC50) of 5.5 nM.
With `O=C(Nc1ccc(Cl)c(C(F)(F)F)c1)N[C@H]1CC[C@H](Oc2ccc(C(=O)O)cc2)CC1` [Compound 2221, trans-4-{4-[3-(4-Chloro-3-trifluoromethyl-phenyl)-ureido]-cyclohexyloxy}-benzoic acid] the IC50 [1] was 0.5 nM and the IC50 [8] was over 10000 nM.
`O=C(Nc1ccc(Cl)c(C(F)(F)F)c1)N[C@H]1CC[C@H](Oc2ccc(C(F)(F)F)cn2)CC1` [Compound 2288, trans-1-(4-Chloro-3-trifluoromethyl-phenyl)-3-[4-(5-trifluoromethyl-pyridin-2-yloxy)-cyclohexyl]-urea] gave an IC50 [7, 10] of over 10000 nM, an IC50 ([1]; read-out: Human sEH IC50) of 9 nM and an IC50 [8] of over 10000 nM.
For `CCN(CC)C(=O)c1cc(O[C@H]2CC[C@H](NC(=O)Nc3ccc(Cl)c(C(F)(F)F)c3)CC2)ccn1` [Compound 2574, trans-4-{4-[3-(4-Chloro-3-trifluoromethyl-phenyl)-ureido]-cyclohexyloxy}-pyridine-2-carboxylic acid diethylamide], the IC50 [7, 10] was over 10000 nM and the IC50 ([1]; read-out: Human sEH IC50) was 0.5 nM.
`CC(C)(C)OC(=O)c1cc(O[C@H]2CC[C@H](NC(=O)Nc3ccc(Cl)c(C(F)(F)F)c3)CC2)ccn1` [Compound 2280, trans-4-{4-[3-(4-Chloro-3-trifluoromethyl-phenyl)-ureido]-cyclohexyloxy}-pyridine-2-carboxylic acid tert-butyl ester] gave an IC50 [8] of over 10000 nM.
`CNC(=O)c1ccc(O[C@H]2CC[C@@H](NC(=O)Nc3ccc(OC(F)(F)F)cc3)CC2)cc1` [Compound 2228, cis-N-Methyl-4-{4-[3-(4-trifluoromethoxy-phenyl)-ureido]-cyclohexyloxy}-benzamide] showed an IC50 [7] of over 10000 nM.
Work on `CCN(CC)C(=O)c1cc(O[C@H]2CC[C@H](NC(=O)Nc3ccc(OC(F)(F)F)cc3)CC2)ccn1` [Compound 2577, trans-4-{4-[3-(4-Trifluoromethoxy-phenyl)-ureido]-cyclohexyloxy}-pyridine-2-carboxylic acid diethylamide] yielded an IC50 ([1]; read-out: Human sEH IC50) of 0.5 nM.
`O=C(Nc1ccc(C(F)(F)F)cc1)N[C@H]1CC[C@H](Oc2ccc(C(=O)O)cc2)CC1` [Compound 2372, trans-4-{4-[3-(4-Trifluoromethyl-phenyl)-ureido]-cyclohexyloxy}-benzoic acid] gave an IC50 [7, 10] of over 10000 nM and an IC50 ([1]; read-out: Human sEH IC50) of 0.9 nM.
Compound `CNC(=O)c1cc(O[C@H]2CC[C@@H](NC(=O)Nc3ccc(Cl)c(C(F)(F)F)c3)CC2)ccn1` [Compound 2319, cis-4-{4-[3-(4-chloro-3-trifluoromethyl-phenyl)-ureido]-cyclohexyloxy}-pyridine-2-carboxylic acid methylamide] has an EC50 ([2]; SK-BR-3, MTT, 72 hours incubation) of 8000 nM, an EC50 ([9]; HepG2, MTT, 72 hours incubation) of 7500 nM and an EC50 ([5]; Huh-7, MTT, 72 hours incubation) of 8500 nM. For the same compound, the IC50 ([1]; read-out: Human sEH IC50) was 0.5 nM.
